In the experiment the target is T1, α-synuclein (α-Syn, αSyn), monomeric (Homo sapiens, UniProt P37840).
T1 construct: gene SNCA; purified, unfolded monomer
As to the kind of experiment: intrinsic tyrosine fluorescence quenching, modified Stern-Volmer plot. The note with it: 37 °C; protein 0.3 mg/mL, Cyanidin 2-30 μM; about 1:1; double-log; printed '8.4×10[5]'; paper calls it weak binding (mM range), which conflicts with this value.

The structures appear in SMILES notation.

Turning to `Oc1cc(O)c2cc(O)c(-c3ccc(O)c(O)c3)[o+]c2c1` [Cyanidin], the Ka turned out to be 840000 M⁻¹.

These data come from article doi:10.1101/2025.08.21.671593v1, “Suppression and modulation mechanism underlying the flavonoid-induced inhibition of fibrillation of α-synuclein” (biorxiv, 2025).
